Source: the COVID Moonshot data (paper PMC11187573), “Identification of SARS-CoV-2 Mpro inhibitors through deep reinforcement learning for de novo drug design and computational chemistry approaches” (RSC Medicinal Chemistry, 2024)

What was measured:
[1] = biological target: SARS-CoV-2 Main Protease (SARS-CoV-2) (UniProt P0DTD1)
[2] = biological target: SARS-CoV-2 Main Protease (SARS-CoV-2) (UniProt P0DTD1); remark: listed apart in the source
Description: Compounds were seeded into assay-ready plates (Greiner 384 low volume, cat 784900) using an Echo 555 acoustic dispenser, and DMSO was back-filled for a uniform concentration in assay plates (DMSO concentration maximum 1%) Screening assays were performed in duplicate at 20µM and 50µM. […] Dose response assays were performed in 12 point dilutions of 2-fold, typically beginning at 100µM. […] Reagents for Mpro assay were dispensed into the assay plate in 10µl volumes for a final volume of 20µL.
Mpro was pre-incubated for 15 minutes at room temperature with compound before addition of substrate and a further 30 minute incubation. Protease reaction was measured in a BMG Pherastar FS with a 480/520 ex/em filter set. Raw data was mapped and normalized to high (Protease with DMSO) and low (No Protease) controls using Genedata Screener software.

Row | SMILES | inhibition ([1]; 20.0 µM) | inhibition ([1]; 50.0 µM) | relative solubility at 20 uM | relative solubility at 100 uM | inhibition ([2]; 50.0 µM) | inhibition ([2]; 20.0 µM) | IC50 [1] | IC50 [2]
1 | CC(C)N(C)CC1CCN(c2ccc(S(N)(=O)=O)cc2)CC1 | 0% | 0% | 1 | 0.99 | -17.8% | – | – | –
2 | Cc1ccnc(C)c1NC(=O)C(C)c1ccc(F)c(F)c1 (stereo not drawn) | – | 0% | 1 | 1 | -2.87% | -0.411% | – | –
3 | Cc1ccc(NC(=O)Nc2cccnc2)s1 | 2.62% | 28.6% | 1 | 0.96 | 11.3% | 1.9% | – | –
4 | Cc1ccncc1NC(=O)CC(O)C1CC1 (stereo not drawn) | – | 2.72% | 1 | 1.01 | 1.39% | -48% | – | –
5 | COC(=O)C(c1ccccc1Cl)N1CCC2SC(=O)C=C2C1 (stereo not drawn) | – | 11.5% | 0.82 | 0.81 | -5.13% | -46.2% | – | –
6 | CC(NC(=O)C(Cc1ccccc1)NC(=O)c1ccco1)c1ncco1 (stereo not drawn) | 0% | 0% | 1 | 1 | -28% | – | – | –
7 | O=C(CCl)N1CCN(S(=O)(=O)c2ccsc2)CC1 | 96.4% | – | 1 | 1 | 73.7% | 78.6% | 0.484 µM | 1.63 µM
8 | COc1ccc2nc(C)cc(C(=O)NN)c2c1 | 0% | 0% | 1 | 1 | 22.2% | – | – | –
9 | CCCc1cc2c(cc1S(=O)(=O)N1CCN(c3ccccc3)CC1)OCO2 | – | 68.3% | 0.91 | 0.92 | -17.1% | 8.44% | 16 µM | –
10 | O=C(CCl)N1CCN(C2(c3cccc(Cl)c3)CC2)CC1 | – | 41.2% | 1.01 | 0.99 | 80.8% | 55.7% | – | 52.3 µM
11 | Cc1ccncc1NC(=O)[C@@]12COC[C@@H]1C2 (stereo in doubt) | – | 0% | 1 | 1 | -2.2% | -0.441% | – | –
12 | CC(C(=O)Nc1cccc(OC2CC(=O)N2)c1)c1cnccn1 (stereo not drawn) | 0% | 0% | 1 | 1 | 17% | – | – | –
13 | O=C(N/N=C/c1c[nH]cn1)C1CCCCC1 | – | -16.3% | 1.01 | 1 | 2.16% | -3.95% | – | –
14 | Cc1[nH]ncc1NC(=O)Cc1cccc(Cl)c1 | – | 52.1% | 0.99 | 1 | 6.93% | 3.64% | – | –
15 | Cc1noc(CC(NC(=O)C(C)Cn2ccnc2)c2ccccc2)n1 (stereo not drawn) | 0% | 0% | 1 | 1 | -2.38% | – | – | –
16 | Cc1ccncc1NC(=O)Cc1cncc(Cl)c1 | – | 71.4% | 1 | 1.01 | 46% | 28.8% | – | –
17 | CCC(=O)Nc1cccc(OC2CC(=O)N2)c1 (stereo not drawn) | – | 0% | 1.01 | 1.01 | -6.23% | -4.99% | – | –
18 | O=C(Cc1cccc(Cl)c1)Nc1cnccn1 | – | 0% | 1.01 | 1 | 13.3% | 3.71% | – | –
19 | CCOc1ccccc1OC1CCN(C(=O)c2cc(=O)[nH]c3ccc(F)cc23)C1 (stereo not drawn) | – | 0% | 1 | 0.99 | 18.2% | 6.76% | – | –
20 | Cc1cc2c(cc1C)[C@H](C(=O)Nc1cncnc1-n1cccn1)CO2 (stereo in doubt) | – | 0% | 0.82 | 0.76 | -9.4% | -1.2% | – | –

Row | SMILES | inhibition ([1]; 20.0 µM) | inhibition ([1]; 50.0 µM) | relative solubility at 20 uM | relative solubility at 100 uM | inhibition ([2]; 50.0 µM) | inhibition ([2]; 20.0 µM) | IC50 [1] | IC50 [2]
21 | Cc1noc(C)c1NC(=O)Cc1cccc(Cl)c1Cl | – | 0% | 1 | 1 | -6.85% | -2.3% | – | –
22 | NS(=O)(=O)c1ccc(N2CCC(c3ccco3)CC2)cc1 | 45.9% | 38.9% | 1 | 0.83 | 8.47% | 5.4% | – | –
23 | COc1cccc(NC(=O)Nc2cccc(C#N)c2)c1 | 0% | 2.48% | 0.96 | 0.94 | 9.79% | 5.11% | – | –
24 | NC(=O)CCN(C(=O)CCl)C1CCS(=O)(=O)C1 (stereo not drawn) | 16.3% | 34.1% | 1 | 1 | 18.6% | – | – | –
25 | C=CC(=O)N(c1cc(C(C)(C)C)on1)C(C(=O)Nc1c(C)cccc1CC)c1cccnc1 (stereo not drawn) | 1.49% | – | 0.99 | 0.9 | 21.1% | 7.33% | – | –
26 | Cc1nnc(NC(=O)Nc2cccnc2)s1 | 4.62% | 8.86% | 1 | 0.99 | 7.32% | 1.19% | – | –
27 | CO[C@H](C)C(=O)N(C)c1cnccc1C (stereo in doubt) | – | 18% | 1.01 | 0.99 | 4.99% | 3.08% | – | –
28 | O=C(NCCOc1ccccc1)c1cc(=O)[nH]c2ccccc12 | – | 3.05% | 1 | 1 | 54.6% | 12.7% | – | –
29 | O=C(NC1CCCCC1NC(=O)C1CCCCC1)c1ccncc1 (stereo not drawn) | 0% | – | 1 | 1 | -20.6% | -14.4% | – | –
30 | C=CC(=O)N(c1ccc(C(C)(C)C)cc1)C(C(=O)NC1CCOCC1)c1cccnc1 (stereo not drawn) | 0.841% | 31.1% | 0.99 | 1 | 0.668% | 9.01% | – | –
31 | O=S(=O)(NCCc1ccccc1)c1ccoc1 | 0% | 16.5% | 1 | 1 | -24.5% | – | – | –
32 | O=C(NCc1cnn2ccccc12)c1cccnc1OCCO | 0% | 0% | 1 | 1.01 | -28.9% | -18.2% | – | –
33 | C=CC(=O)N1CCN(C(=O)c2cccc(Cl)c2)CC1 | 0% | 0% | 0.99 | 0.99 | 5.55% | – | – | –
34 | N#Cc1cccc(CN2CCN(C(=O)CCl)CC2)c1 | 64.3% | – | 1.01 | 0.99 | 85.2% | 53.4% | 12.2 µM | –
35 | C=CC(=O)N(c1ccc(C(C)(C)C)cc1)C(C(=O)NCCSC)c1cccnc1 (stereo not drawn) | 56% | 63.9% | 1 | 0.99 | 68.9% | 38.5% | 65.4 µM | –
36 | Cc1cc(NC(=O)Cn2cncc2C)cc(C)c1Cl | – | 25.8% | 1 | 0.99 | 4.88% | 2.9% | – | –
37 | O=C(Nc1cccnc1)c1cccc(Cl)c1 | 0% | – | 1 | 0.92 | 6.67% | 5.47% | – | –
38 | C=CC(=O)N(c1ccc(N(C)C)c(C)c1)C(C(=O)Nc1cccc(CC)c1)c1cccnc1 (stereo not drawn) | 0% | – | 0.85 | 0.68 | 11.7% | 7.05% | – | –
39 | C=CC(=O)N(C1CCC2(CCCC2)CC1)C(C(=O)NC(C)(C)C)c1cccnc1 (stereo not drawn) | 0% | – | 1 | 0.97 | 6.94% | -5.6% | – | –
